Data as given in patent US20110028409A1, “DETECTION OF ANTI-RIBOSOMAL P PROTEIN ANTIBODIES BY MEANS OF SYNTHETIC PEPTIDES” (TOSCANA BIOMARKERS S.R.L., priority 2009, published 2011).
Ends that are not written are not given here.

How the values were obtained:
[1] = tested on: anti-ribosomal P protein antibodies (IgG) in serum samples; test: Antibody detection by covalent ELISA (peptide covalently linked to plate); type: binding, human; conditions: for healthy donor positive sera (%): 6 healthy donor sera diluted 1:100; for SLE positive sera (%): 8 SLE sera diluted 1:100; for SLE positive sera (positive/tested): SLE sera diluted 1:100; for healthy donor positive sera (positive/tested): healthy donor sera diluted 1:100
Experimental: A peptide, prepared as described in example 1, was covalently linked to a 96-wells microtitre plate (carboxy or amine binding plate) using sulfo-N-hydroxysuccinimide and 1-ethyl-3-(3-dimethylaminopropyl)carbodiimide. Peptide coupling took place for 2 h at r.t. The plate was blocked for 1 h with 5% FBS in PBS or with 0.5 M Gly (pH 8). The patients serum samples were diluted 1:100 in FBS buffer and were then loaded onto the plate for 1.5 h at r.t. After plate washings, an anti human-IgG antibody conjugated to the enzyme alkaline phosphatase was added and incubated for 1.5 h at r.t. After washings, the alkaline phosphate substrate p-nitrophenyl phosphate was added to the wells. After the quenching of the enzymatic reaction with 1 M NaOH, the absorbance was evaluated at a wavelength of 405 nm.

[2] = tested on: anti-ribosomal P protein antibodies (IgG) in serum samples; test: Antibody detection by ELISA (peptide adsorbed onto microtitre plate); type: binding, human
Experimental: A peptide, prepared as described in example 1 and diluted in 0.05 M carbonate buffer (pH 9.6) or in PBS buffer (pH 7.4) was adsorbed onto 96-wells microtitre plates for 4 h at r.t. The wells were treated for 1 h at r.t. with FBS (FBS 5% in PBS). The patients serum samples (diluted 1:100) were then loaded onto the plate and allowed to react overnight at +4° C. After plate washing, an anti human-IgG antibody conjugated to the enzyme alkaline phosphatase was added and incubated for 3 h at r.t. After washings, the alkaline phosphate substrate p-nitrophenyl phosphate was added to the wells. After the quenching of the enzymatic reaction with 1 M NaOH, the absorbance was evaluated at a wavelength of 405 nm.
In total, 25 serum samples of patients suffering from SLE and 68 serum of healthy blood donors were tested by this method.

[3] = tested on: SLE specific auto-antibodies in patients sera; conditions: literature; cited from earlier work

Row | Substance | healthy donor positive sera (%) [1] [%] | SLE positive sera (%) [1] [%] | SLE positive sera (positive/tested) [1] | healthy donor positive sera (positive/tested) [1] | SLE positive sera (%) ([2]; 25 SLE sera, diluted 1:100, adsorbed peptide) | healthy donor positive sera (%) ([2]; 68 healthy blood donor sera, diluted 1:100, adsorbed peptide) | number of SLE sera negative to peptide 9 in which anti ribosomal antibodies were detected ([2]; SLE serum negative to peptide 9) | number of peptide 9-positive SLE sera showing cross-reactivity with peptide 1 ([2]; among the SLE sera positive to peptide 9) | healthy donor positive sera (positive/tested) ([2]; sera of healthy blood donors, diluted 1:100, adsorbed peptide) | SLE positive sera (positive/tested) ([2]; sera of patients suffering from SLE, diluted 1:100, adsorbed peptide, absorbance 405 nm) | patients sera in which SLE specific auto-antibodies are detected [3]
1 | GVNVEPFWPGL [Peptide 3] | 0 | 12 | 1/8 | 0/6 | – | – | – | – | – | – | –
2 | LIKAAGVNVEPFWPGLFAKA [Peptide 1, linear peptide derived from the N-terminal region of human ribosomal P1 protein] | 0 | 50 | 4/8 | 0/6 | 32 | 1 | 3 | 4 | 1/68 | 8/25 | –
3 | NH2-Lys-Lys-Glu-Glu-Lys-Lys-Glu-Glu-Ser-Glu-Glu-Glu-Asp-Glu-Asp-Met-Gly-Phe-Gly-Leu-Phe-Asp-COOH (H-KKEEKKEESEEEDEDMGFGLFD-OH) [Peptide C-22, peptide comprising the last 22 amino acids of ribosomal P proteins] | – | – | – | – | – | – | – | – | – | – | 10-20%
4 | LIKAAGVNVE [Peptide 2] | 0 | 37 | 3/8 | 0/6 | – | – | – | – | – | – | –
5 | PFWPGLFAKA [Peptide 4] | 0 | 12 | 1/8 | 0/6 | – | – | – | – | – | – | –
